Results on 34 compounds are retold here after PMC8286840, “Identifying SARS-CoV-2 antiviral compounds by screening for small molecule inhibitors of Nsp3 papain-like protease” (Biochemical Journal, 2021).

Structures can show the parent of a compound that is named as a salt. Where two headings read alike, the source gives them in different places.

Assay [1] addresses T1, SARS-CoV-2 PLpro (nsp3 1564–1878) (Severe acute respiratory syndrome coronavirus 2, UniProt P0DTD1). Put plainly: biochemical. Also noted: FRET-quenched peptide (Pro3) cleavage by PLpro, 10 min pre-incubation, slope over 20 min, normalised to no-compound control. To be noted: read-out: % of control remaining.
For assay [2], the target named is T1, SARS-CoV-2 PLpro (nsp3 1564–1878). Put plainly: biochemical. Also noted: FRET-quenched peptide (Pro3) cleavage by PLpro, 10 min pre-incubation, slope over 20 min, normalised to no-compound control. To be noted: read-out: % of control remaining. The source holds these as a separate data set.

Take `Cc1cccc(-c2nn(C(=S)Nc3ccccc3)cc2-c2ccnc3ccccc23)n1` [3-(6-methyl-2-pyridinyl)-N-phenyl-4-(4-quinolinyl)-1H-pyrazole-1-carbothioamide]: the remaining activity at 1.25 µM in assay [1] is 99.2%. Besides, the remaining activity at 3.75 µM in assay [2] came out at 100%.
As to `COc1ccc(C(=O)Nc2c(Cl)cncc2Cl)cc1OC1CCCC1` [3-(cyclopentyloxy)-N-(3,5-dichloro-4-pyridinyl)-4-methoxybenzamide], in assay [1] (Well no.=5876, low concentration screen), the remaining activity at 1.25 µM is 105%. In assay [2] (Well no.=5876, high concentration screen), the remaining activity at 3.75 µM was 104%.
For the compound `NCCCS(=O)(=O)O` [3-Amino-1-propanesulfonic acid sodium], the remaining activity at 1.25 µM in assay [1] (Well no.=301, low concentration screen) amounted to 98%. The remaining activity at 3.75 µM in assay [2] (Well no.=301, high concentration screen) was determined as 98.1%.
With `CC(CN)C(=O)O` (centres unmarked) [3-Amino-2-methylpropanoic acid], in assay [1] (Well no.=6787, low concentration screen), the remaining activity at 1.25 µM came out at 101%. The remaining activity at 3.75 µM in assay [2] (Well no.=6787, high concentration screen) amounted to 97.6%.
Take `CC(C)C(N)CC(=O)O` (centres unmarked) [3-Amino-4-methylpentanoic acid]: in assay [1] (Well no.=6403, low concentration screen), the remaining activity at 1.25 µM was 103%. Also, the remaining activity at 3.75 µM in assay [2] (Well no.=6403, high concentration screen) came to 105%.
`O=C(O)/C=C/C(=O)O` [3-Aminopropionitrile fumarate]: the remaining activity at 1.25 µM in assay [1] (Well no.=251, low concentration screen) was determined as 92.7%. Also, in assay [2] (Well no.=251, high concentration screen), the remaining activity at 3.75 µM was 93.7%.
Regarding `NCCCP(=O)(O)O` [3-Aminopropylphosphonic acid], the remaining activity at 1.25 µM in assay [1] (Well no.=357, low concentration screen) amounted to 90.6%. For the same compound, in assay [2] (Well no.=357, high concentration screen), the remaining activity at 3.75 µM amounted to 93.7%.
On to `O=C(O)/C=C/c1c[nH]c2ccccc12` [3-Beta-Indoleacrylic acid], for which, in assay [1] (Well no.=3773, low concentration screen), the remaining activity at 1.25 µM came to 99%. Also, in assay [2] (Well no.=3773, high concentration screen), the remaining activity at 3.75 µM worked out at 101%.
For `O=[N+]([O-])c1cccc2c(Br)[nH]nc12` [3-Bromo-7-nitroindazole], the remaining activity at 1.25 µM in assay [1] (Well no.=27, low concentration screen) was 98.5%. Also, the remaining activity at 3.75 µM in assay [2] (Well no.=27, high concentration screen) came out at 96.1%.
Regarding `N[C@@H](Cc1ccc(O)c(Cl)c1)C(=O)O` [3-Chloro-L-tyrosine], the remaining activity at 1.25 µM in assay [1] (Well no.=7491, low concentration screen) is 101%. The remaining activity at 3.75 µM in assay [2] (Well no.=7491, high concentration screen) was 101%.
On to `Nc1nccc2c1ncn2[C@@H]1O[C@H](CO)[C@@H](O)[C@H]1O` [3-Deazaadenosine (hydrochloride)], for which, in assay [1] (Well no.=7808, low concentration screen), the remaining activity at 1.25 µM is 96.7%. Besides, the remaining activity at 3.75 µM in assay [2] (Well no.=7808, high concentration screen) was determined as 92.6%.
As to `Nc1c(O)cccc1C(=O)O` [3-Hydroxyanthranilic acid], the remaining activity at 1.25 µM in assay [1] (Well no.=6535, low concentration screen) stood at 102%. Also, the remaining activity at 3.75 µM in assay [2] (Well no.=6535, high concentration screen) turned out to be 91.9%.
As to `NNCc1cccc(O)c1` [3-Hydroxybenzylhydrazine dihydrochloride], the remaining activity at 1.25 µM in assay [1] (Well no.=568, low concentration screen) is 104%. Moreover, in assay [2] (Well no.=568, high concentration screen), the remaining activity at 3.75 µM was determined as 97.9%.
Regarding `CC(O)CC(=O)O` (centres unmarked) [3-Hydroxybutyric acid], the remaining activity at 1.25 µM in assay [1] (Well no.=7117, low concentration screen) stood at 103%. Besides, the remaining activity at 3.75 µM in assay [2] (Well no.=7117, high concentration screen) worked out at 99%.
As to `O=C(O)CNC(=O)c1cccc(O)c1` [3-Hydroxyhippuric acid], the remaining activity at 1.25 µM in assay [1] (Well no.=7219, low concentration screen) came to 102%. In addition, in assay [2] (Well no.=7219, high concentration screen), the remaining activity at 3.75 µM came to 99.6%.
For `CC(C)(O)CC(=O)O` [3-Hydroxyisovaleric acid], the remaining activity at 1.25 µM in assay [1] (Well no.=6925, low concentration screen) amounted to 108%. Moreover, the remaining activity at 3.75 µM in assay [2] (Well no.=6925, high concentration screen) was 98.6%.
In the case of `O=C(O)C(O)c1cccc(O)c1` (centres unmarked) [3-Hydroxymandelic Acid], the remaining activity at 1.25 µM in assay [1] (Well no.=6879, low concentration screen) worked out at 100%. Besides, the remaining activity at 3.75 µM in assay [2] (Well no.=6879, high concentration screen) was 98.2%.
`O=C(O)c1ncccc1O` [3-Hydroxypicolinic acid]: in assay [1] (Well no.=6885, low concentration screen), the remaining activity at 1.25 µM was 68.8%. Further, the remaining activity at 3.75 µM in assay [2] (Well no.=6885, high concentration screen) was 92.3%.
Take `O=C(O)Cc1c[nH]c2ccccc12` [3-Indoleacetic acid]: the remaining activity at 1.25 µM in assay [1] (Well no.=6255, low concentration screen) turned out to be 108%. In addition, the remaining activity at 3.75 µM in assay [2] (Well no.=6255, high concentration screen) was found to be 113%.
Take `O=C(O)CCc1c[nH]c2ccccc12` [3-Indolepropionic acid]: the remaining activity at 1.25 µM in assay [1] (Well no.=6597, low concentration screen) is 99.7%. Also, in assay [2] (Well no.=6597, high concentration screen), the remaining activity at 3.75 µM was 102%.
Consider `N[C@@H](Cc1ccc(O)c(I)c1)C(=O)O` [3-Iodo-L-tyrosine], for which the remaining activity at 1.25 µM in assay [1] (Well no.=919, low concentration screen) was 103%. Also, in assay [2] (Well no.=919, high concentration screen), the remaining activity at 3.75 µM is 104%.
In the case of `CC(C)Cn1c(=O)n(C)c(=O)c2[nH]cnc21` [3-Isobutyl-1-methylxanthine], the remaining activity at 1.25 µM in assay [1] (Well no.=773, low concentration screen) is 108%. Besides, the remaining activity at 3.75 µM in assay [2] (Well no.=773, high concentration screen) is 106%.
Turning to `COc1cccc(C(=O)O)c1` [3-Methoxybenzoic acid], in assay [1] (Well no.=6587, low concentration screen), the remaining activity at 1.25 µM was found to be 100%. For the same compound, in assay [2] (Well no.=6587, high concentration screen), the remaining activity at 3.75 µM was 98.4%.
On to `COc1cc(CCN)ccc1O` [3-Methoxytyramine], for which the remaining activity at 1.25 µM in assay [1] (Well no.=6773, low concentration screen) came to 107%. For the same compound, the remaining activity at 3.75 µM in assay [2] (Well no.=6773, high concentration screen) was found to be 97.4%.
For the compound `CCC(C)C(=O)C(=O)O` (centres unmarked) [3-Methyl-2-oxovaleric acid], the remaining activity at 1.25 µM in assay [1] (Well no.=6977, low concentration screen) worked out at 100%. The remaining activity at 3.75 µM in assay [2] (Well no.=6977, high concentration screen) turned out to be 101%.
In the case of `Cc1nnc2ccc(-c3cccc(C(F)(F)F)c3)nn12` [3-Methyl-6-(3-[trifluoromethyl]phenyl)-1,2,4-triazolo[4,3-b]pyridazine], in assay [1] (Well no.=828, low concentration screen), the remaining activity at 1.25 µM was 106%. For the same compound, in assay [2] (Well no.=828, high concentration screen), the remaining activity at 3.75 µM stood at 105%.
On to `Cn1cnc(N)c2ncnc1-2` [3-Methyladenine], for which the remaining activity at 1.25 µM is 104% in assay [1] (Well no.=5079, low concentration screen) and 103% in assay [1] (Well no.=7447, low concentration screen). The remaining activity at 3.75 µM in assay [2] (Well no.=7447, high concentration screen) turned out to be 106%.
For `CC(CCC(=O)O)CC(=O)O` (centres unmarked) [3-Methyladipic acid], the remaining activity at 1.25 µM in assay [1] (Well no.=6533, low concentration screen) worked out at 107%. Also, the remaining activity at 3.75 µM in assay [2] (Well no.=6533, high concentration screen) was 98.2%.
With `Cn1c(=N)ccn([C@@H]2O[C@H](CO)[C@@H](O)[C@H]2O)c1=O` [3-Methylcytidine], the remaining activity at 1.25 µM in assay [1] (Well no.=7960, low concentration screen) worked out at 97.2%. Further, the remaining activity at 3.75 µM in assay [2] (Well no.=7960, high concentration screen) is 98.7%.
In the case of `CC(CC(=O)O)CC(=O)O` [3-Methylglutaric acid], the remaining activity at 1.25 µM in assay [1] (Well no.=6835, low concentration screen) worked out at 100%. Further, the remaining activity at 3.75 µM in assay [2] (Well no.=6835, high concentration screen) stood at 99.3%.
Consider `Cn1c(=O)ccn([C@@H]2O[C@H](CO)[C@@H](O)[C@H]2O)c1=O` [3-Methyluridine], for which the remaining activity at 1.25 µM is 93.2% in assay [1] (Well no.=7067, low concentration screen) and 101% in assay [1] (Well no.=7918, low concentration screen). The remaining activity at 3.75 µM in assay [2] (Well no.=7067, high concentration screen) was found to be 91.5%; in assay [2] (Well no.=7918, high concentration screen) it was 101%.
For the compound `Cn1c(=O)[nH]c(=O)c2[nH]cnc21` [3-Methylxanthine], in assay [1] (Well no.=6777, low concentration screen), the remaining activity at 1.25 µM is 106%. Further, the remaining activity at 3.75 µM in assay [2] (Well no.=6777, high concentration screen) is 102%.
In the case of `N=c1c[n+](N2CCOCC2)[n-]o1` [3-Morpholinosydnonimine hydrochloride], in assay [1] (Well no.=1041, low concentration screen), the remaining activity at 1.25 µM came out at 102%. Further, the remaining activity at 3.75 µM in assay [2] (Well no.=1041, high concentration screen) is 103%.
For the compound `O=C(O)CC[N+](=O)[O-]` [3-Nitropropionic acid], the remaining activity at 1.25 µM in assay [1] (Well no.=953, low concentration screen) amounted to 100%. In assay [2] (Well no.=953, high concentration screen), the remaining activity at 3.75 µM amounted to 99.4%.
